Reference: patent publication US8242280B2, “Fused ring heterocycle kinase modulators” (SGX Pharmaceuticals, Inc., priority 2007, dated 2012)

How the values were obtained:
[1] = biological target: Ba/F3 cells, ABL1 WT (Homo sapiens, UniProt P00519); experiment: 96-well XTT cell survival assay, Ba/F3 ABL1 WT; format: cell-based; settings: 72 hours, read-out: ABL1 WT XTT [Ba/F3] IC50
Procedure: (§1) MV4-11 and THP cells were maintained in Iscove's Modified Dulbecco's Medium supplemented with 10% fetal bovine serum (FBS) and penicillin/streptomycin, Ba/F3 cells were maintained in RPMI 1640 supplemented with 10% FBS, penicillin/streptomycin and 5 ng/ml recombinant mouse IL-3.
(§2) Compounds were tested in the following assays in duplicate.
(§3) 96-well XTT assay: Cells (e.g. BaF3 315I, M351I, or E255K cells) were grown in growth media containing various concentrations of compounds (duplicates) on a 96-well plate for 72 hours at 37° C. The starting cell number was 5000-8000 cells per well and volume was 120 μl. At the end of the 72-hour incubation, 40 μl of XTT labeling mixture (50:1 solution of sodium 3′-[1-(phenylamino-carbonyl)-3,4-tetrazolium]-bis(4-methoxy-6-nitro)benzene sulfonic acid hydrate and Electron-coupling reagent: PMS (N-methyl dibenzopyrazine methyl sulfate) were added to each well of the plate. After an additional 2-6 hours of incubation at 37° C., the absorbance reading at 405 nm with background correction at 650 nm was measured with a spectrophotometer.

[2] = biological target: Ba/F3 cells, ABL1 T315I (Homo sapiens, UniProt P00519, T315I, cells depend on it); experiment: 96-well XTT cell survival assay, Ba/F3 ABL1 T315I; format: cell-based; settings: 72 hours, read-out: ABL1 T315I XTT [Ba/F3] IC50
Procedure: as §1, §2, §3

[3] = biological target: T1, unphosphorylated T315I Abl kinase domain (Mus musculus, UniProt P00520, T315I); experiment: c-Abl T315I 0P bioassay (pyruvate kinase/lactate dehydrogenase coupled enzyme assay); format: biochemical; settings: zero phosphorylation state (0P), 10 μM ATP, read-out: AbI T315I 0P IC50
T1 construct: purified and unphosphorylated T315I Abl kinase domain; made in house; host or cells: E. coli BL21(DE3) (Codon+RIL or pSA0145 strain)
T1 sequence (P00520 242-493 T315I limits assumed): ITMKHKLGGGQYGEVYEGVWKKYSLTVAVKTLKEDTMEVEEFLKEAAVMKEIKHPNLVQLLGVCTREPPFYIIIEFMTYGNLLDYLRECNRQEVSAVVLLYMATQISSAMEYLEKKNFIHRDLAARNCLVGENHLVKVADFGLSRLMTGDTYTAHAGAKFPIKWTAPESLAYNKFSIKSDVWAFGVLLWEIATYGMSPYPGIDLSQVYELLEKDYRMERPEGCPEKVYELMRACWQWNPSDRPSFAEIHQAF
Text: Although the first of these examples uses the kinase domain of a mutant form of Abl T315I (“Abl T315I KD”), the kinase assays may use various forms of mutant and wild type enzymes, including, for example, the entire protein, the kinase domain, or a portion thereof (e.g. Abl Y393F). The kinases used in the assays may also be of varying phosphorylation states. In the c-Abl example, a mutant kinase at a zero phosphorylation state was used. c-Abl Pyruvate Kinase/Lactate Dehydrogenase Coupled Enzyme Assay
In the c-Abl Pyruvate Kinase (PK)/Lactate Dehydrogenase (LDH) Coupled Assay the protein kinase dependant phosphorylation of a substrate peptide was coupled to the oxidation of NADH. The oxidation of NADH to NAD+ was detected by monitoring a decrease in absorbance at 340 nm.
Materials: Abl substrate peptide=EAIYAAPFAKKK (SEQ ID NO: 1)—OH (Biopeptide, San Diego, Calif.); pNADH (Sigma Cat#N-8129, FW=709.4); 2M MgC12; 1M HEPES buffer, pH 7.5; Phosphoenolpyruvate (PEP) (Sigma Cat#P-7002, FW=234); Lactate dehydrogenase (LDH) (Worthington Biochemical Cat#2756); Pyruvate Kinase (PK) (Sigma Cat#P-9136); ATP (Sigma Cat#A-3377, FW=551); Greiner 384-well UV star plate; and purified and unphosphorylated T315I Abl kinase domain.
Stock Solutions: 10 mM NADH (7.09 mg/ml in miliQH2O) made fresh daily; 10 mM Abl substrate peptide (13.4 mg/ml in miliQH2O) stored at −20° C.; 100 mM HEPES buffer, pH 7.5 (5 ml 1M stock+45 ml miliQH2O); 100 mM MgCl2 (5 ml 2M MgCl2+95 ml dH2O); 100 MM PEP (23.4 mg/ml in dH2O) stored at −20° C.; 10 mM ATP (5.51 mg/ml in dH2O) stored at −20° C. (diluted 50 μl into total of 10 ml miliQH2O daily=50 μM ATP working stock); 1000 U/ml PK (U/mg varies with lot) flash-frozen under liquid N2 and stored at −80° C.; and 1000 U/ml LDH (U/mg varies with lot) flash-frozen under liquid N2 and stored at −80° C.
Standard Assay Setup for 384-well format (50 μl reaction): 300 μM NADH; 10 mM MgCl2; 2 mM PEP; 45U/ml PK; 60 U/ml LDH; 200 μM Abl substrate peptide; 2.5 μl test compound (in DMSO); 2 μg/ml Abl kinase domain; 10 μM ATP; 100 mM HEPES buffer. Positive controls contained DMSO with no test compound. Negative controls contained 5 μl of 0.5M EDTA (50 mM in the assay). The dephosphorylated form of the c-Abl T315I mutant was used in the biochemical screening assays. The kinase reaction was initiated at time t=0 by the addition of ATP.
Activity was measured by following the time-dependent loss of NADH by absorbance spectroscopy at 340 nm. The linear portion of the resulting progress curve was then analyzed by linear regression to get the activity in absorbance units/time, reported as the slope of that best fit line (moles/unit time can be calculated from using molar extinction coefficient for NADH at 340 nm, 6250M^−1 cm^−1).
Data was evaluated using the equation: Z′=1−[3*(σ++σ−)/|μ+−μ−|](Zhang, et al., 1999 J Biomol Screening 4(2) 67-73), where μ denotes the mean and σ the standard deviation. The subscript designates positive or negative controls. The Z′ score for a robust screening assay should be ≧0.50. The typical threshold=μ+−3*σ+. Any value that falls below the threshold was designated a “hit”.
Dose response was analyzed using the equation: y=min+{(max−min)/(1+10^[compound]−logIC50)}, where y is the observed initial slope, max=the slope in the absence of inhibitor, min=the slope at infinite inhibitor, and the IC50 is the [compound] that corresponds to ½ the total observed amplitude (Amplitude=max−min).
To measure modulation, activation, or inhibition of Abl KD, a test compound was added to the assay at a range of concentrations. Inhibitors may inhibit Abl KD activity at an IC50 in the micromolar range, the nanomolar range, or, for example, in the subnanomolar range.
An open-reading frame for c-Abl was amplified from a Mus musculus (mouse) cDNA library prepared from freshly harvested mouse liver using a commercially available kit (invitrogen) by PCR using the following primers: […]
The c-Abl T315I KD (kinase domain) was purified as follows. […]

| SMILES | IC50 [3] [nM] | GI50 [1] [nM] | GI50 [2] [nM] |
| --- | --- | --- | --- |
| COc1ccccc1-c1n[nH]c2ncc(-c3cccc(C(C(=O)N4CCC(N(C)C)C4)N(C)C)c3)cc12 (stereo not drawn) | 50 to 500 | > 1000 | > 1000 |
| COc1ccccc1-c1n[nH]c2ncc(-c3cccc(C(C(=O)N(C)CCN(C)C)N(C)C)c3)cc12 (stereo not drawn) | 50 to 500 | > 1000 | > 1000 |
| COc1ccccc1-c1n[nH]c2ncc(-c3cncc(C(O)C(=O)N(C)C)c3)cc12 (stereo not drawn) | < 50 | < 1000 | < 1000 |
| COc1ccccc1-c1c[nH]c2ncc(-c3cccc(C(O)C(=O)N(C)CC4CCCO4)c3)cc12 (stereo not drawn) | < 50 | < 1000 | < 1000 |
| COc1ccccc1-c1c[nH]c2ncc(-c3cccc(C(O)C(=O)N(C)CC4CCN(C)CC4)c3)cc12 (stereo not drawn) | < 50 | < 1000 | < 1000 |
| COc1ccccc1-c1c[nH]c2ncc(-c3cncc(C(O)C(=O)N(C)Cc4ccncc4)c3)cc12 (stereo not drawn) | < 50 | > 1000 | > 1000 |
| COc1ccccc1-c1c[nH]c2ncc(-c3cccc(C(O)C(=O)N(C)CC4CCOCC4)c3)cc12 (stereo not drawn) | < 50 | < 1000 | < 1000 |
| COc1ccccc1-c1n[nH]c2ncc(-c3cccc(C(O)c4ncccc4C)c3)cc12 (stereo not drawn) | < 50 | < 1000 | < 1000 |
| COc1ccccc1-c1c[nH]c2ncc(-c3cc(C(C#N)C(=O)N(C)C)ncn3)cc12 (stereo not drawn) | > 500 | > 1000 | > 1000 |
| COc1ccccc1-c1n[nH]c2ncc(-c3cccc([C@H](O)[C@@H](O)C(C)C)c3)cc12 | < 50 | < 1000 | < 1000 |
| CC[C@H](O)[C@@H](O)c1cccc(-c2cnc3[nH]nc(-c4ccccc4OC)c3c2)c1 | < 50 | < 1000 | < 1000 |
| CC[C@@H]1OCO[C@H]1c1cccc(-c2cnc3[nH]nc(-c4ccccc4OC)c3c2)c1 | < 50 | > 1000 | > 1000 |
| COc1ccccc1-c1n[nH]c2ncc(-c3cccc([C@@H](O)[C@H](O)C(C)C)c3)cc12 | < 50 | < 1000 | < 1000 |
| COc1ccccc1-c1n[nH]c2ncc(-c3cccc([C@H]4OCO[C@@H]4C(C)C)c3)cc12 | < 50 | > 1000 | > 1000 |
| COc1ccccc1-c1n[nH]c2ncc(-c3cccc([C@H](O)[C@H](O)C(C)C)c3)cc12 | < 50 | < 1000 | < 1000 |
| COc1ccccc1-c1n[nH]c2ncc(-c3cccc([C@@H]4OCO[C@@H]4C(C)C)c3)cc12 | < 50 | > 1000 | > 1000 |
| COc1ccccc1-c1c[nH]c2ncc(-c3cccc(C(O)C(=O)N(C)Cc4ccnn4C)c3)cc12 (stereo not drawn) | < 50 | < 1000 | < 1000 |

Now from value to molecule, other results behind:

| IC50 [3] [nM] | SMILES | GI50 [1] [nM] | GI50 [2] [nM] |
| --- | --- | --- | --- |
| < 50 | COc1ccccc1-c1c[nH]c2ncc(-c3cccc(C4(C)NC(=O)NC4=O)c3)cc12 (stereo not drawn) | < 1000 | > 1000 |
| < 50 | COc1ccccc1-c1c[nH]c2ncc(-c3cccc(C(C(=O)N(C)CCN(C)C)N4CCNCC4)c3)cc12 (stereo not drawn) | > 1000 | > 1000 |
| < 50 | COc1ccccc1-c1c[nH]c2ncc(-c3cccc(C(C(=O)N4CCC[C@@H]4CO)N4CCNCC4)c3)cc12 (stereo partly drawn) | > 1000 | > 1000 |
| < 50 | COc1ccccc1-c1c[nH]c2ncc(-c3cccc(C(O)C(=O)N(C)C4CCOCC4)c3)cc12 (stereo not drawn) | < 1000 | < 1000 |
| < 50 | COc1ccccc1-c1n[nH]c2ncc(-c3cccc(C(O)c4ncccc4F)c3)cc12 (stereo not drawn) | < 1000 | < 1000 |
| < 50 | COc1ccccc1-c1n[nH]c2ncc(-c3cccc(C(O)c4ncccc4C(F)(F)F)c3)cc12 (stereo not drawn) | > 1000 | > 1000 |
| < 50 | COc1ccccc1-c1c[nH]c2ncc(-c3cccc(C(O)c4ccccn4)c3)cc12 (stereo not drawn) | < 1000 | < 1000 |
| < 50 | COc1ccccc1-c1n[nH]c2ncc(-c3cccc(C(O)c4ccccn4)c3)cc12 (stereo not drawn) | < 1000 | > 1000 |
| < 50 | COc1ccccc1-c1c[nH]c2ncc(-c3cccc(C(O)c4ncccc4C(F)(F)F)c3)cc12 (stereo not drawn) | > 1000 | > 1000 |
| < 50 | CNC(C(=O)N(C)C)c1cccc(-c2cnc3[nH]nc(-c4ccccc4OC)c3c2)c1 (stereo not drawn) | > 1000 | > 1000 |
| < 50 | CNC(C(=O)N(C)CCN(C)C)c1cccc(-c2cnc3[nH]nc(-c4ccccc4OC)c3c2)c1 (stereo not drawn) | > 1000 | > 1000 |
| < 50 | CNC(C(=O)N1CCC(N(C)C)C1)c1cccc(-c2cnc3[nH]nc(-c4ccccc4OC)c3c2)c1 (stereo not drawn) | > 1000 | > 1000 |
| < 50 | CNC(C(=O)N(C)C(C)C)c1cccc(-c2cnc3[nH]nc(-c4ccccc4OC)c3c2)c1 (stereo not drawn) | > 1000 | > 1000 |
| < 50 | COc1ccccc1-c1c[nH]c2ncc(-c3cccc(C(O)C(=O)N(C)C[C@@H](O)CO)c3)cc12 (stereo partly drawn) | < 1000 | < 1000 |
| < 50 | COc1ccccc1-c1n[nH]c2ncc(-c3cccc(C(O)c4nccn4C)c3)cc12 (stereo not drawn) | < 1000 | > 1000 |
| < 50 | COc1ccccc1-c1c[nH]c2ncc(-c3cccc(C(O)c4nccn4C)c3)cc12 (stereo not drawn) | < 1000 | < 1000 |
